Legend:
[1] = EC17 dose finding safety study, tumor-free mice; type: in vivo; design: key to CRS grade: 0: normal (no CRS); 1: mild; 2: light-to-moderate; 3–4: severe CRS; 5: death (due to severe CRS); conditions: ~10 million E2-CAR-T cells
From the text: For MDA-MB-231 studies, mice received a high dose (~10 million) of a “clinical facsimile” of E2-CAR-T cells (~39% EGFRt+) with a low differentiation profile. Two days later, we started them with 3 different treatment regimens of EC17 at an average tumor size of ~293 ± 39 mm^3. The EC17 dosing was given once-a-week (SIW) at 500 nmol/kg on Mondays, or as escalating doses of 5, 50, or 100, and 500 or 1,000 nmol/kg on Monday, Thursday, and Monday with a 6 day break in-between cycles. Control mice were left untreated (received CAR-T cells but no EC17). For comparison, a cohort of tumor-free littermates also received the same number of CAR-T cells without or with EC17 SIW at 500 nmol/kg. To study the effect of high dietary folate, two sets of NSG mice were placed on either a FA-replete diet (4 mg/kg, Envigo, Indianapolis, IN) or a FA-deficient diet (TestDiet, St. Louis, MO) upon arrival. […]
Depending on the CAR-T cell dose and how EC17 is administered, tumor-bearing mice receiving FITC-specific CAR-T cells can experience severe CRS and varying degrees of body weight loss ([27], [33], [34]). […] On the days immediately following each EC17 dose, animals were scored and rescue agents such as sodium fluorescein, folic acid and leucovorin were used to mitigate CRS toxicity ([33]). […]

E2-CAR-T cells = assay: 3H-EC17 radioligand binding to effector cells; design: species or system human; conditions: ^3H-EC17, E2-CAR-T cells ~100% EGFRt+, 1:1 CD8/CD4, 1.5 h room temperature, estimated from specific binding curve
Procedure: The bispecific affinities of EC17 CAM were assessed using ^3H-EC17 in cell-based radioligand binding assays. For binding to FR+ targets, KB and CHO-β cells were pre-seeded overnight in 24-well tissue culture plates and incubated with 0.1, 0.5, 1, 5, 10, 20, and 40 nM of ^3H-EC17 in FFRPMI for 2 h at 37°C. Afterwards, the cells were rinsed with phosphate-buffered saline (PBS, pH 7.4) and lysed with 1% sodium dodecyl sulfate. The whole cell lysates were quantitated for the level of radioactivity and cellular protein content by standard Pierce BCA protein assay. The number of ^3H-EC17 molecules bound per cell was calculated to determine the dissociation constants (Kd) for FRα (KB) and FRβ (CHO-β), respectively. […] Afterwards, the cells were washed 4x with PBS, lysed with 0.1% Triton X-100 plus 0.1 N NaOH and counted in a scintillation counter. The specific binding curve was generated by subtracting non-specific binding (^3H-EC17 plus “cold” EC17) from total binding (^3H-EC17) at each concentration of the radioligand.

FRβ = molecular target: T1, FRβ (Homo sapiens, UniProt P14207); assay: 3H-EC17 cell-based radioligand binding, CHO-β cells; conditions: ^3H-EC17, CHO-β cells, 2 h at 37°C, from molecules bound per cell
T1 construct: expressed in transfected cells; host or cells: Chinese hamster ovary cells (CHO-β)
Procedure: Unless otherwise noted, all FR+ and FR-negative cancer cell lines were, respectively, maintained in RPMI-1640 medium (Gibco BRL) supplemented with 10% heat-inactivated fetal calf serum without (FFRPMI) or with (RPMI) 2.4 μM folic acid (FA). KB (FRα-expressing human cervical carcinoma with HeLa markers) and CHO-β (Chinese hamster ovary cells transfected with human FRβ) were used as the sources of FRα and FRβ for radioligand binding assays, respectively ([18]). MDA-MB-231 represents a FRα+ subclone of human TNBC cell line. For AML studies, the green fluorescent protein (GFP)-expressing isogenic pairs of FRβ-positive (THP1-FRβ) and FR-negative (THP1-FG12) cell lines were kindly provided by Dr. Manohar Ratnam (The University of Toledo, Toledo, OH). […]
The bispecific affinities of EC17 CAM were assessed using ^3H-EC17 in cell-based radioligand binding assays. […] The whole cell lysates were quantitated for the level of radioactivity and cellular protein content by standard Pierce BCA protein assay. The number of ^3H-EC17 molecules bound per cell was calculated to determine the dissociation constants (Kd) for FRα (KB) and FRβ (CHO-β), respectively. […] Afterwards, the cells were washed 4x with PBS, lysed with 0.1% Triton X-100 plus 0.1 N NaOH and counted in a scintillation counter. […]

T1 sequence (P14207 17-255): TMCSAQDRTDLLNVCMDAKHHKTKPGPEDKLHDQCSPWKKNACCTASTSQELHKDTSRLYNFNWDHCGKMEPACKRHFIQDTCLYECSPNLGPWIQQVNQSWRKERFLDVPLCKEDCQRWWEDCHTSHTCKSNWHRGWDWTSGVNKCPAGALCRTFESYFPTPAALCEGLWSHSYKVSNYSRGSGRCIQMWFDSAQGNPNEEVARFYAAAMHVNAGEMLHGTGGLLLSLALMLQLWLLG

SMILES: Nc1nc2ncc(CNc3ccc(C(=O)NC(CCC(=O)NCCNC(=S)Nc4ccc(-c5c6ccc(=O)cc-6oc6cc(O)ccc56)c(C(=O)O)c4)C(=O)O)cc3)nc2c(=O)[nH]1 (stereo not shown) [EC17, FA-(γ)-ethylenediamine-FITC]
- CRS grade ([1]; 2 weekly doses EC17 500 nmol/kg, 0–5 scale): 0
- CAR-T cell expansion by flow cytometry ([1]; EC17 SIW 500 nmol/kg): no CAR-T cell expansion was detected
- Kd (E2-CAR-T cells): ~0.142 µM
- Kd (FRβ): 0.0008 µM

Reference: PMC6433934, “Preclinical Evaluation of Bispecific Adaptor Molecule Controlled Folate Receptor CAR-T Cell Therapy With Special Focus on Pediatric Malignancies” (Frontiers in Oncology, 2019)
